Measured values taken from paper PMC8380212, “^18F-labeled tracers targeting fibroblast activation protein” (EJNMMI Radiopharmacy and Chemistry, 2021).
pEC50: −log10 of the molar value.

Legend:
[1] = target: T1, FAP‐transfected HT‐1080‐FAP cells (Homo sapiens, UniProt Q12884); assay: In vitro binding/uptake on FAP-transfected HT-1080-FAP cells; assay type: cell-based; details: HT1080-FAP cells
T1 construct: expressed in transfected cells; host or cells: HT-1080 cells transfected with FAP (HT-1080-FAP)
T1 sequence (Q12884 1-760): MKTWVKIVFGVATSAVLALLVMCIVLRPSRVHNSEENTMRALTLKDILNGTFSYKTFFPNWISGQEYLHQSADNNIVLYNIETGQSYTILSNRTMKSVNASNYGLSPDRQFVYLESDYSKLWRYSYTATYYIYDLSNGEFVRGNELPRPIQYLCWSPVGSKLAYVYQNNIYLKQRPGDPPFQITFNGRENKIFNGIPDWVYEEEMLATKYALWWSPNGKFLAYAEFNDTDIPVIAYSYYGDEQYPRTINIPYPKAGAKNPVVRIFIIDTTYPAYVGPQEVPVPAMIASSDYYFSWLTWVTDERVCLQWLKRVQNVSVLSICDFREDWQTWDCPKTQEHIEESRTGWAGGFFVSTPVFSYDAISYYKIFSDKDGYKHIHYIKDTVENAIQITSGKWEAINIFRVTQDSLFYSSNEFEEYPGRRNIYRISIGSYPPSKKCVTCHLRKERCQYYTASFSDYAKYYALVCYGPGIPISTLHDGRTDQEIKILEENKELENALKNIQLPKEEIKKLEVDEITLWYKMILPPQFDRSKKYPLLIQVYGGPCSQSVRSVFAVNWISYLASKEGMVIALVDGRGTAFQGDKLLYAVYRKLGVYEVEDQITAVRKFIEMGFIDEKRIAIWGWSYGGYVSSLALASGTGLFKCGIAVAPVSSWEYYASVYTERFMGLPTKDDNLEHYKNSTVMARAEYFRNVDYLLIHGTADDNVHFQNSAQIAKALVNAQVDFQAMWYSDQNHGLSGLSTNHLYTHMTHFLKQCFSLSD
Protocol: (§1) The binding properties of the FAPI derivatives were evaluated using the FAP‐transfected HT‐1080‐FAP and CD26 expressing HEK-CD26 cells. All cells were cultivated in Dulbecco's modified Eagle's medium (DMEM) containing 10% fetal calf serum (FCS) at 37 °C/5% carbon dioxide. Cells were seeded in 6-well plates and cultivated to a final confluence of approximately 80–90% (1.2 to 2.0 × 10^6 cells/well). After washing with FCS free medium, for each well ca. 3 kBq of the radiolabeled compound (10–20 GBq/µmol for [^18F]AlF-labeling) was added to the cells in FCS free medium. On completion of the individual incubation time, cells were washed with PBS and treated with 1.4 mL lysis buffer (0.3 m NaOH, 0.2% SDS) before being transferred to measuring tubes. Competition experiments were performed by co-incubation with the unlabeled precursor for 60 min. Radioactivity was determined in a Wizard Gamma Counter (Perkin Elmer), normalized to 10^6 cells and calculated as percentage of the applied dose (%AD). Each experiment was performed in triplicate.

[2] = target: T2, CD26 expressing HEK-CD26 cells (Homo sapiens, UniProt P27487); assay: In vitro binding on HEK-CD26 cells (negative control); assay type: cell-based
T2 construct: expressed in transfected cells; host or cells: HEK cells transfected with CD26/DPP4 (HEK-CD26)
T2 sequence (P27487 whole entry): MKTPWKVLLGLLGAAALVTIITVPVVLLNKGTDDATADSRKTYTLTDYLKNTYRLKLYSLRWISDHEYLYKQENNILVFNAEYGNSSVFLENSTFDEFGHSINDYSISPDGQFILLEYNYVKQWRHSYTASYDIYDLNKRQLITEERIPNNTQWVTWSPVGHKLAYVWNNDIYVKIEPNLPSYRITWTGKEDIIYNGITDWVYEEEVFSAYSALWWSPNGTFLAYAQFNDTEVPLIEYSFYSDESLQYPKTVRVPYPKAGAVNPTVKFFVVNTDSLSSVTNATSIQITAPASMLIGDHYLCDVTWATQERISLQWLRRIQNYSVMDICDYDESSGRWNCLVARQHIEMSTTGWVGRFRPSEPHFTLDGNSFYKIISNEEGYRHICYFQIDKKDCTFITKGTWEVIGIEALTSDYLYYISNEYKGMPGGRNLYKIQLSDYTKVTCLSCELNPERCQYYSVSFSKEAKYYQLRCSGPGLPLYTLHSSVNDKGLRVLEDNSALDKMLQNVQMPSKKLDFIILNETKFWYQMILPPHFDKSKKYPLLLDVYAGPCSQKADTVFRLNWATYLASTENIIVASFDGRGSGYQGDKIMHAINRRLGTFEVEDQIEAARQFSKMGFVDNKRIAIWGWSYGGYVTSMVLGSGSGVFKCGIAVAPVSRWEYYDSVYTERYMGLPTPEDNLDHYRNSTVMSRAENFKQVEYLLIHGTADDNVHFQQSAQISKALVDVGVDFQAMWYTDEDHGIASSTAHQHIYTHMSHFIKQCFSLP
Protocol: as §1

FAP (HT-1080-FAP cells) = target: T3, FAP (HT-1080-FAP cells) (Homo sapiens, UniProt Q12884); assay: Competition experiments with unlabeled precursor on HT-1080-FAP cells; assay type: binding; details: co-incubation with unlabeled precursor for 60 min
T3 construct: expressed in transfected cells; host or cells: HT-1080 cells transfected with FAP (HT-1080-FAP)
T3 sequence (Q12884 1-760): T1 sequence (Q12884 1-760)
Protocol: as §1

HT-1080-FAP xenografts = assay: Small animal PET imaging; assay type: in vivo, BALB/c nu/nu mice
Protocol: Eight-week-old BALB/c nu/nu mice (Charles River) were subcutaneously inoculated with 5 × 10^6 HT-1080-FAP cells. The subcutaneous xenografts were grown at the flanks of the mice. Xenografts were grown to a tumor diameter of 10–15 mm. Mice were anesthetized using isoflurane inhalation. 5–10 MBq of the [^18F]AlF-labeled compounds/ the respective tracer (FAPI-42/52/74/75/76; approx. 0.5 nmol; Am approximately 10–20 GBq/µmol) were injected intravenously for PET imaging. In vivo competition (blocking) experiments with ^68 Ga-FAPI-74 (9 MBq; 18.2 GBq/µmol) were performed by adding 30 nmol of unlabeled FAPI-74 to the injection solution. Images were acquired using a small-animal PET scanner (Inveon, Siemens). Within the first 60 min p.i., a dynamic scan was performed in list mode, followed by a static scan from 120–140 min post injection. Images were reconstructed iteratively using the 3D-OSEM + MAP method (Siemens) and were converted to standardized uptake value (SUV). For the dynamic analysis, 28 frames were reconstructed. Quantification was based on ROI analysis and expressed as SUV.
SUPPLEMENTAL TABLE 1: Tumor-SUVmean values of all mentioned ^18F labeled FAPI-derivatives in HT1080-FAP transplanted nude mice at different time points. The time points 8 min, 22 min and 57 min were selected from the applied 28-frame 3D-OSEM+MAP (Siemens) reconstruction method.

[3] = tested on: NSCLC primary tumor and metastases; assay: Clinical PET/CT imaging of a patient with NSCLC; assay type: in vivo, human; details: for SUVmean / SUVmax: primary tumor and metastases; for SUVmax: 323 MBq i.v.
Protocol: [^18F]AlF-FAPI-74 (16.2 GBq/µmol at time of injection) was applied intravenously (20 nmol; 323 MBq) to a patient with NSCLC. The PET/CT scans were performed 1 and 3 h post tracer administration with a Biograph mCT Flow™ PET/CT-Scanner (Siemens Medical Solutions). The parameters used were slice thickness of 5 mm, increment of 3–4 mm, soft-tissue reconstruction kernel and care dose. After CT scanning, a whole-body PET was acquired in 3D (matrix 200 × 200) in FlowMotion™ with 0.7 cm/min. The emission data were corrected for random, scatter and decay. Reconstruction was conducted with an ordered subset expectation maximization (OSEM) algorithm with 2 iterations/21 subsets and Gauss-filtered to a transaxial resolution of 5 mm at full-width half-maximum. Attenuation correction was performed using the low-dose non-enhanced CT data. The quantitative assessment of standardized uptake values (SUV) was done using a region of interest technique.

[4] = small animal PET, HT-1080-FAP xenograft

uptake 10 min ([1]; 10 min incubation): 27.2 ± 0.88 %AD/10^6 cells | uptake 60 min ([1]; 60 min incubation): 29.7 ± 0.66 %AD/10^6 cells | uptake 120 min ([1]; 120 min incubation): 30.39 ± 2.47 %AD/10^6 cells | uptake CD26 [2]: 0.18 ± 0.04 %AD/10^6 cells | pEC50 (FAP (HT-1080-FAP cells)): 8.38 | Tumor Uptake (SUVmean) 8 min (HT-1080-FAP xenografts; HT1080-FAP transplanted nude mice, 8 min): 1.58 | Tumor Uptake (SUVmean) 22 min (HT-1080-FAP xenografts; HT1080-FAP transplanted nude mice, 22 min): 1.81 | Tumor Uptake (SUVmean) 57 min (HT-1080-FAP xenografts; HT1080-FAP transplanted nude mice, 57 min): 1.91 | Tumor Uptake (SUVmean) 120 min (HT-1080-FAP xenografts; HT1080-FAP transplanted nude mice, 120 min): 1.3 | excretion pathway (HT-1080-FAP xenografts; small animal PET in tumor bearing mice): favorable renal excretion | tumor uptake SUVmean (HT-1080-FAP xenografts; small animal PET screening, discussion): approx. 2.0 | tumor-SUV max (HT-1080-FAP xenografts; [4]): 2.3 | tumor-SUV mean (HT-1080-FAP xenografts; [4]): 1.9 | excretion route in patient ([3]; non-target tissues and blood pool): excreted predominantly via the kidneys | SUV in normal tissues ([3]; normal tissues of the patient): almost zero | SUVmean ([3]; 1 h): 3.3 ± 0.6 | SUVmax ([3]; 1 h): 6.5 ± 1.1 | SUVmean ([3]; 3 h): 2.75 ± 0.5 | SUVmax ([3]; 3 h): 5.6 ± 0.7
Structure (SMILES): N#C[C@@H]1CCCN1C(=O)CNC(=O)c1ccnc2ccc(OCCCN3CCN(C(=O)CN4CCN(CC(=O)O)CCN(CC(=O)O)CC4)CC3)cc12 [FAPI-74]
